Measurements as given in patent US11439660B2, “Antimicrobial poly(alkylated imidazolium) salts” (NANYANG TECHNOLOGICAL UNIVERSITY, priority 2017, dated 2022).

Assays:
[1] = test system: PAER (carbapenem-resistant Pseudomonas aeruginosa, CRPA); settings: imipenem control, 2 mg/kg, 3 doses
Protocol: In another study, mice (5 per group) were treated with varied doses of PIM 1 at 1 h, 4 h and 8 h post-infection with PAO1. Positive and negative control groups of mice were injected with 2 mg/kg of imipenem and same volume of PBS respectively, at the same time point. At the 12th hour, all mice were euthanized with peritoneal washes performed via injecting 3.0 mL of PBS into the intraperitoneal cavity followed by massaging the abdomen for 1 min. After which, approximately 1 mL of peritoneal fluid was recovered to calculating the CFU of bacteria, as well as for immune cells quantification.
For carbapenem-resistant Acinetobacter baumannii (CRAB) and carbapenem-resistant Pseudomonas aeruginosa (CRPA) septicemia protection model, similar procedure was conducted with care and 5% mucin was injected together with the bacteria to have the mice immunocompromised (resulting in similar conditions as hospitalised patients).

[2] = test system: AB-1 (carbapenem-resistant Acinetobacter baumannii, CRAB); settings: imipenem control, 2 mg/kg × 3 doses
Protocol: In another study, mice (5 per group) were treated with varied doses of PIM 1 at 1 h, 4 h and 8 h post-infection with PAO1. Positive and negative control groups of mice were injected with 2 mg/kg of imipenem and same volume of PBS respectively, at the same time point. At the 12th hour, all mice were euthanized with peritoneal washes performed via injecting 3.0 mL of PBS into the intraperitoneal cavity followed by massaging the abdomen for 1 min. After which, approximately 1 mL of peritoneal fluid was recovered to calculating the CFU of bacteria, as well as for immune cells quantification. Bacterial loads were also evaluated in the spleen, liver and kidneys of the animals.
For carbapenem-resistant Acinetobacter baumannii (CRAB) and carbapenem-resistant Pseudomonas aeruginosa (CRPA) septicemia protection model, similar procedure was conducted with care and 5% mucin was injected together with the bacteria to have the mice immunocompromised (resulting in similar conditions as hospitalised patients). The amount of bacteria was analysed with one-way classification analysis of variance (ANOVA) and student's t-test (Graphpad Prism for Windows, version 7).

SA29213 = assay type: cell-based, S. aureus; settings: serial passaging at sub-MIC levels, 21 days
Protocol: Aliquots of the bacteria at various time points were stored in glycerol and kept at −80° C. for further study whenever resistance development was observed. Ofloxacin was used as the positive control.

PAO1 = assay: Mouse septicemia model, survival; assay type: in vivo; settings: 1 mg/kg IP at 0.5 h, 4 h and 8 h post-infection; monitored over 7 days
Protocol: Given the excellent bacteria killing properties and biocompatibility of PIM 1 chloride, the therapeutic efficacy of this polymer was tested in vivo using a mouse septicemia model (FIG. 13). Balb/c female mice (7 weeks with one week quarantine) were used to test the PAO1 septic shock protection efficacy of PIM 1. Exponential phase of PAO1 was collected and washed twice with PBS, and re-suspended in the same volume of PBS. 300 μL of cell suspension containing 3×10^7 CFU of PAO1 was introduced into each mouse via intraperitoneal injection to induce septic shock. […] The survival rate of the mice was monitored over 7 days.

Q: How did the “reduction in the population of CRPA in the intraperitoneal fluid (in words)” value [1] turn out when `C[C@@H](O)[C@H]1C(=O)N2C(C(=O)O)=C(SCCN=CN)C[C@H]12` [imipenem] was run?
A: The value was “no reduction”.

Q: What about the “removal of AB-1 from the peritoneal fluid (in words)” value [2] of the same compound?
A: Its value is “did not show any removal”.

Q: `CC1COc2c(N3CCN(C)CC3)c(F)cc3c(=O)c(C(=O)O)cn1c23` (stereo not shown) [ofloxacin] was tested. Which resistance evolution (SA29213) did it give?
A: The resistance evolution was “above 128 MIC fold change”.

Q: Which survival rate (PAO1) does the source give for colistin here?
A: Its survival rate is 80%.
